Among the data in US20230374035A1, “RAS INHIBITORS” (Revolution Medicines, Inc., priority 2019, published 2023) are IC50 values, retold here.

pIC50: −log10 of the molar value.

The assay has as its target NRAS Q61K (Homo sapiens, UniProt P01111+P62937, Q61K). Kind of assay: Disruption of BRAF RBD interaction with Ras (FRET / MOA assay). It counts as biochemical. As to conditions: read-out: NRAS Q61K FRET data IC50. Here is the method: Compound is present in plate wells as a 10-point 3-fold dilution series starting at a final concentration of 30 μM. […] Compounds that facilitate disruption of a Ras:RAF complex are identified as those eliciting a decrease in the TR-FRET ratio relative to DMSO control wells.
Note—The following protocol describes a procedure for monitoring disruption of K-Ras G12C (GMP-PNP) binding to BRAF^RBD by a compound of the invention. This protocol may also be executed substituting other Ras proteins or nucleotides.
The purpose of this biochemical assay was to measure the ability of test compounds to facilitate ternary complex formation between a nucleotide-loaded K-Ras isoform and Cyclophilin A; the resulting ternary complex disrupts binding to a BRAF^RBD construct, inhibiting K-Ras signaling through a RAF effector. Data is reported as IC50 values.
Compound was present in plate wells as a 10-point 3-fold dilution series starting at a final concentration of 30 μM. […] Compounds that facilitate disruption of a K-Ras:RAF complex were identified as those eliciting a decrease in the TR-FRET ratio relative to DMSO control wells.

NRAS Q61K, sequence (P01111 whole entry Q61K): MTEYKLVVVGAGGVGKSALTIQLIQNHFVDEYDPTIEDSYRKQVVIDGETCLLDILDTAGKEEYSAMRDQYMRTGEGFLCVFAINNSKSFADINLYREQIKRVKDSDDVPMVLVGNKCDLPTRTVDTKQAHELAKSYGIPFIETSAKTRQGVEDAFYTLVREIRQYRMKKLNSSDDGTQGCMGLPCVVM
NRAS Q61K, sequence (P62937 whole entry): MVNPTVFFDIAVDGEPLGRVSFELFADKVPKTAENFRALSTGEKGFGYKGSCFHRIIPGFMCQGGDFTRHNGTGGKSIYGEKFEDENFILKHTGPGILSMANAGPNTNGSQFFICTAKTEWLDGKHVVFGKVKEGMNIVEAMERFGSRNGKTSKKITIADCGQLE

As a reminder, the pIC50 is the IC50 on a negative log10 scale, so that one unit is a factor of ten. As for `CCn1c(-c2cccnc2[C@H](C)OC)c2c3cc(ccc31)-c1csc(n1)C[C@H](NC(=O)[C@H](C(C)C)N(C)C(=O)N1CCO[C@@H](CN(C)C)C1)C(=O)N1CCC[C@H](N1)C(=O)OCC(C)(C)C2` (atropisomer, axis not shown) [Compound A591], the pIC50 is 7.00 to 8.00.

Turning to `CCn1c(-c2cccnc2[C@H](C)OC)c2c3cc(ccc31)-c1csc(n1)C[C@H](NC(=O)[C@H](C(C)C)N(C)C(=O)N1C[C@H](N)[C@@H](O)C1)C(=O)N1CCC[C@H](N1)C(=O)OCC(C)(C)C2` (atropisomer, axis not shown) [Compound A581], the pIC50 was 7.00 to 8.00.

Regarding `CCn1c(-c2cccnc2[C@H](C)OC)c2c3cc(ccc31)-c1csc(n1)C[C@H](NC(=O)[C@H](C(C)C)N(C)C(=O)N1CC(C(=O)O)C1)C(=O)N1CCC[C@H](N1)C(=O)OCC(C)(C)C2` (atropisomer, axis not shown) [Compound A344], the pIC50 was 7.00 to 8.00.

Turning to `CCn1c(-c2cccnc2[C@H](C)OC)c2c3cc(ccc31)-c1csc(n1)C[C@H](NC(=O)[C@H](C(C)C)N(C)C(=O)N1CCC13CCS(=O)(=O)CC3)C(=O)N1CCC[C@H](N1)C(=O)OCC(C)(C)C2` (atropisomer, axis not shown) [Compound A530], the pIC50 is 7.00 to 8.00.

With `CCn1c(-c2cccnc2[C@H](C)OC)c2c3cc(ccc31)-c1csc(n1)C[C@H](NC(=O)[C@H](C(C)C)N(C)C(=O)N1CCO[C@H](c3ccccc3)C1)C(=O)N1CCC[C@H](N1)C(=O)OCC(C)(C)C2` (atropisomer, axis not shown) [Compound A582], the pIC50 was 7.00 to 8.00.

In the case of `CCn1c(-c2cccnc2[C@H](C)OC)c2c3cc(ccc31)-c1csc(n1)C[C@H](NC(=O)[C@H](C(C)C)N(C)C(=O)N1CCCC[C@H](N(C)C)C1)C(=O)N1CCC[C@H](N1)C(=O)OCC(C)(C)C2` (atropisomer, axis not shown) [Compound A491], the pIC50 is 7.00 to 8.00.

Take `CCn1c(-c2cccnc2[C@H](C)OC)c2c3cc(ccc31)-c1csc(n1)C[C@H](NC(=O)[C@H](C(C)C)N(C)C(=O)N1C3COCC1C3)C(=O)N1CCC[C@H](N1)C(=O)OCC(C)(C)C2` [Compound A540]: the pIC50 was 7.00 to 8.00.

Regarding `CCn1c(-c2cccnc2[C@H](C)OC)c2c3cc(ccc31)-c1csc(n1)C[C@H](NC(=O)[C@H](C(C)C)N(C)C(=O)N(C)CCc1ccncc1)C(=O)N1CCC[C@H](N1)C(=O)OCC(C)(C)C2` (atropisomer, axis not shown) [Compound A557], the pIC50 is 7.00 to 8.00.

As for `CCn1c(-c2cccnc2[C@H](C)OC)c2c3cc(ccc31)-c1csc(n1)C[C@H](NC(=O)[C@H](C(C)C)N(C)C(=O)N(C)C1COC1)C(=O)N1CCC[C@H](N1)C(=O)OCC(C)(C)C2` (atropisomer, axis not shown) [Compound A334], the pIC50 is 7.00 to 8.00.

Regarding `CCn1c(-c2cccnc2[C@H](C)OC)c2c3cc(ccc31)-c1csc(n1)C[C@H](NC(=O)[C@H](C(C)C)N(C)C(=O)N1CC(NS(C)(=O)=O)C1)C(=O)N1CCC[C@H](N1)C(=O)OCC(C)(C)C2` (atropisomer, axis not shown) [Compound A552], the pIC50 is 7.00 to 8.00.

As for `CCn1c(-c2cccnc2[C@H](C)OC)c2c3cc(ccc31)-c1csc(n1)C[C@H](NC(=O)[C@H](C(C)C)N(C)C(=O)N1CCN(C(=O)[C@@H]3CCCN3C)CC1)C(=O)N1CCC[C@H](N1)C(=O)OCC(C)(C)C2` (atropisomer, axis not shown) [Compound A596], the pIC50 is 7.00 to 8.00.

Consider `CCn1c(-c2cccnc2[C@H](C)OC)c2c3cc(ccc31)-c1csc(n1)C[C@H](NC(=O)[C@H](C(C)C)N(C)C(=O)N1CC3(CC(N(C)C4COC4)C3)C1)C(=O)N1CCC[C@H](N1)C(=O)OCC(C)(C)C2` (atropisomer, axis not shown) [Compound A511], for which the pIC50 was 7.00 to 8.00.

As to `CCn1c(-c2cccnc2[C@H](C)OC)c2c3cc(ccc31)-c1cc(O)cc(c1)C[C@H](NC(=O)[C@H](C(C)C)N(C)C(=O)C1CCC3(CCOC3)O1)C(=O)N1CCC[C@H](N1)C(=O)OCC(C)(C)C2` (some centres unmarked) [Compound A409], the pIC50 was 7.00 to 8.00.

In the case of `CCn1c(-c2cccnc2[C@H](C)OC)c2c3cc(ccc31)-c1csc(n1)C[C@H](NC(=O)[C@H](C(C)C)N(C)C(=O)N1CC(C#N)(N(C)C)C1)C(=O)N1CCC[C@H](N1)C(=O)OCC(C)(C)C2` [Compound A452], the pIC50 was 7.00 to 8.00.

As for `CCn1c(-c2cccnc2[C@H](C)OC)c2c3cc(ccc31)-c1csc(n1)C[C@H](NC(=O)[C@H](C(C)C)N(C)C(=O)N1CC3(CC(NCCOC)C3)C1)C(=O)N1CCC[C@H](N1)C(=O)OCC(C)(C)C2` (atropisomer, axis not shown) [Compound A512], the pIC50 was 7.00 to 8.00.

Turning to `CCn1c(-c2cccnc2[C@H](C)OC)c2c3cc(ccc31)-c1cc(O)cc(c1)C[C@H](NC(=O)[C@H](C(C)C)N(C)C(=O)[C@H]1CCC(=O)O1)C(=O)N1CCC[C@H](N1)C(=O)OCC(C)(C)C2` (atropisomer, axis not shown) [Compound A405], the pIC50 was 7.00 to 8.00.

On to `CCn1c(-c2cccnc2[C@H](C)OC)c2c3cc(ccc31)-c1csc(n1)[C@@H](OC)[C@H](NC(=O)[C@H](C(C)C)N(C)C(=O)N(C)C)C(=O)N1CCC[C@H](N1)C(=O)OCC(C)(C)C2` (atropisomer, axis not shown) [Compound A598, (2S)—N-((6^3S,3S,4S,Z)-1^1-ethyl-3-methoxy-1^2-(2-((S)-1-methoxyethyl)pyridin-3-yl)-10,10-dimethyl-5,7-dioxo-6^1,6^2,6^3,6^4,6^5,6^6-hexahydro-1^1H-8-oxa-2(4,2)-thiazola-1(5,3)-indola-6(1,3)-pyridazinacycloundecaphane-4-yl)-3-methyl-2-(1,3,3-trimethylureido)butanamide], for which the pIC50 was 7.00 to 8.00.

As for `CCn1c(-c2cccnc2[C@H](C)OC)c2c3cc(ccc31)-c1csc(n1)C[C@H](NC(=O)[C@H](C(C)C)N(C)C(=O)N1CC3(CC(N(C)C(C)C)C3)C1)C(=O)N1CCC[C@H](N1)C(=O)OCC(C)(C)C2` (atropisomer, axis not shown) [Compound A485], the pIC50 is 7.00 to 8.00.

Turning to `CCn1c(-c2cccnc2[C@H](C)OC)c2c3cc(ccc31)-c1csc(n1)C[C@H](NC(=O)[C@H](C(C)C)N(C)C(=O)N1CC(S(C)(=O)=O)C1)C(=O)N1CCC[C@H](N1)C(=O)OCC(C)(C)C2` (atropisomer, axis not shown) [Compound A383], the pIC50 was 7.00 to 8.00.

Regarding `CCn1c(-c2cccnc2[C@H](C)OC)c2c3cc(ccc31)-c1csc(n1)C[C@H](NC(=O)[C@H](C(C)C)N(C)C(=O)N1CCO[C@@H](c3ccccc3)C1)C(=O)N1CCC[C@H](N1)C(=O)OCC(C)(C)C2` (atropisomer, axis not shown) [Compound A600], the pIC50 was 7.00 to 8.00.

`CCn1c(-c2cccnc2[C@H](C)OC)c2c3cc(ccc31)-c1csc(n1)C[C@H](NC(=O)[C@H](C(C)C)N(C)C(=O)N1CC[C@H](O)C1)C(=O)N1CCC[C@H](N1)C(=O)OCC(C)(C)C2` (atropisomer, axis not shown) [Compound A401]: the negative logarithm of the IC50 (pIC50) is 7.00 to 8.00.

Consider `CCn1c(-c2cccnc2[C@H](C)OC)c2c3cc(ccc31)-c1csc(n1)C[C@H](NC(=O)[C@H](C(C)C)N(C)C(=O)N1C[C@@H]3OCCN(C)[C@H]3C1)C(=O)N1CCC[C@H](N1)C(=O)OCC(C)(C)C2` (atropisomer, axis not shown) [Compound A445], for which the pIC50 was 7.00 to 8.00.

On to `CCn1c(-c2cccnc2[C@H](C)OC)c2c3cc(ccc31)-c1csc(n1)C[C@H](NC(=O)[C@H](C(C)C)N(C)C(=O)N1CCN3C(=O)CN(C)C[C@H]3C1)C(=O)N1CCC[C@H](N1)C(=O)OCC(C)(C)C2` (atropisomer, axis not shown) [Compound A537], for which the pIC50 is 7.00 to 8.00.

Turning to `CCn1c(-c2cccnc2[C@H](C)OC)c2c3cc(ccc31)-c1csc(n1)C[C@H](NC(=O)[C@H](C(C)C)N(C)C(=O)N1CC(CN(C)C)C1)C(=O)N1CCC[C@H](N1)C(=O)OCC(C)(C)C2` (atropisomer, axis not shown) [Compound A576], the pIC50 is 7.00 to 8.00.

On to `CCn1c(-c2cccnc2[C@H](C)OC)c2c3cc(ccc31)-c1csc(n1)C[C@H](NC(=O)[C@H](C(C)C)N(C)C(=O)N1CC([C@H](C)COC)C1)C(=O)N1CCC[C@H](N1)C(=O)OCC(C)(C)C2` (atropisomer, axis not shown) [Compound A533], for which the pIC50 is 7.00 to 8.00.

For `CCn1c(-c2cccnc2[C@H](C)OC)c2c3cc(ccc31)-c1csc(n1)C[C@H](NC(=O)[C@H](C(C)C)N(C)C(=O)N1CC(COC)C1)C(=O)N1CCC[C@H](N1)C(=O)OCC(C)(C)C2` (atropisomer, axis not shown) [Compound A387], the pIC50 is 7.00 to 8.00.

With `CO[C@@H](C)c1ncccc1-c1c2c3cc(ccc3n1CC(F)F)-c1csc(n1)C[C@H](NC(=O)[C@H](C(C)C)N(C)C(=O)N1CC(N(C)C)C1)C(=O)N1CCC[C@H](N1)C(=O)OCC(C)(C)C2` (atropisomer, axis not shown) [Compound A316], the pIC50 was 7.00 to 8.00.

As to `CCn1c(-c2cccnc2[C@H](C)OC)c2c3cc(ccc31)-c1csc(n1)C[C@H](NC(=O)[C@H](C(C)C)N(C)C(=O)N1CCC[C@H](N(C)C)C1)C(=O)N1CCC[C@H](N1)C(=O)OCC(C)(C)C2` (atropisomer, axis not shown) [Compound A569], the pIC50 is 7.00 to 8.00.

Consider `CCn1c(-c2cccnc2[C@H](C)OC)c2c3cc(ccc31)-c1csc(n1)C[C@H](NC(=O)[C@H](C(C)C)N(C)C(=O)N1C[C@@H]3OCCN(C)[C@@H]3C1)C(=O)N1CCC[C@H](N1)C(=O)OCC(C)(C)C2` (atropisomer, axis not shown) [Compound A444], for which the pIC50 is 7.00 to 8.00.
